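Growth conditions: 96-well plates. Treatment: test compound, 48 hours, 5 concentrations. Analysis: linear interpolation between bracketing concentrations; unreached endpoints set to highest concentration. GI50 is the concentration that inhibits growth by half.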 Calls of active or inactive are those of the source. Rule as the data show it: active = GI50 up to about 1.1 µM and inactive = higher.
Columns and labels:
Assay in all cases: NCI-60 cell line screen, 48 h
SNB-19 = test system: SNB-19
CCRF-CEM = test system: CCRF-CEM
SNB-75 = test system: SNB-75
LOX IMVI = test system: LOX IMVI
Malme-3M = test system: Malme-3M
786-0 = test system: 786-0
UO-31 = test system: UO-31
HCT-15 = test system: HCT-15
HL-60 = test system: HL-60
SF-295 = test system: SF-295
NCI-H460 = test system: NCI-H460
RPMI-8226 = test system: RPMI-8226
OVCAR-8 = test system: OVCAR-8
TK-10 = test system: TK-10
KM12 = test system: KM12
CAKI-1 = test system: CAKI-1
NCI-H522 = test system: NCI-H522

Row | SMILES | GI50 (SNB-19) | GI50 (CCRF-CEM) | GI50 (SNB-75) | GI50 (LOX IMVI) | GI50 (Malme-3M) | GI50 (786-0) | GI50 (UO-31) | GI50 (HCT-15) [µM] | GI50 (HL-60) | GI50 (SF-295) | GI50 (NCI-H460) | GI50 (RPMI-8226) | GI50 (OVCAR-8) | GI50 (TK-10) | GI50 (KM12) | GI50 (CAKI-1) | GI50 (NCI-H522)
1 | Cc1cc2c(C)nn(Cc3ccc(Cl)cc3Cl)c2c(C#N)c1C | > 100 µM (inactive) | > 100 µM (inactive) | 89.9 µM (inactive) | > 100 µM (inactive) | > 100 µM (inactive) | > 100 µM (inactive) | > 100 µM (inactive) | > 100 | > 100 µM (inactive) | 50.4 µM (inactive) | 79.4 µM (inactive) | > 100 µM (inactive) | > 100 µM (inactive) | > 100 µM (inactive) |  |  | 
2 | CN1CCc2c1nc(-c1ccc(Cl)cc1)c1c2N(C)CC1 | 22.5 µM (inactive) | 12 µM (inactive) | 29.6 µM (inactive) | 5.01 µM (inactive) | > 100 µM (inactive) | > 100 µM (inactive) | 10.7 µM (inactive) | 7.06 | 10.7 µM (inactive) | 14.1 µM (inactive) | 15.7 µM (inactive) | 9.06 µM (inactive) | 25.5 µM (inactive) | 29.2 µM (inactive) | 3.7 µM (inactive) | 6.44 µM (inactive) | 
3 | CC(C)(C)[Si](C)(C)OC1C(=O)C[C@H]2CCCC[C@@H]12 (stereo partly specified) | > 100 µM (inactive) | > 100 µM (inactive) | > 100 µM (inactive) | > 100 µM (inactive) | > 100 µM (inactive) | > 100 µM (inactive) | > 100 µM (inactive) | > 100 | 48.4 µM (inactive) | > 100 µM (inactive) | > 100 µM (inactive) | > 100 µM (inactive) | > 100 µM (inactive) | > 100 µM (inactive) | > 100 µM (inactive) | > 100 µM (inactive) | 
4 | Cn1c(=O)cc2[nH]c3ccccc3n2c1=O | > 100 µM (inactive) | 41.5 µM (inactive) | > 100 µM (inactive) | 20.2 µM (inactive) | > 100 µM (inactive) | 24 µM (inactive) | 93.3 µM (inactive) | 33.7 | > 100 µM (inactive) | > 100 µM (inactive) | 57.5 µM (inactive) | > 100 µM (inactive) | 43.8 µM (inactive) | 81.7 µM (inactive) | > 100 µM (inactive) | > 100 µM (inactive) | 
5 | Nc1nc2[nH]cnc2c(=O)[nH]1 |  | > 100 µM (inactive) | 90.6 µM (inactive) | > 100 µM (inactive) | > 100 µM (inactive) | > 100 µM (inactive) | > 100 µM (inactive) | > 100 | > 100 µM (inactive) | > 100 µM (inactive) | > 100 µM (inactive) | > 100 µM (inactive) | > 100 µM (inactive) | > 100 µM (inactive) | > 100 µM (inactive) | > 100 µM (inactive) | > 100 µM (inactive)
6 | NC1CCC[C@H]1O (stereo partly specified) | > 100 µM (inactive) | > 100 µM (inactive) | > 100 µM (inactive) | > 100 µM (inactive) | > 100 µM (inactive) | > 100 µM (inactive) | > 100 µM (inactive) | > 100 | > 100 µM (inactive) | > 100 µM (inactive) | > 100 µM (inactive) | > 100 µM (inactive) | > 100 µM (inactive) | > 100 µM (inactive) | > 100 µM (inactive) |  | > 100 µM (inactive)
7 | COc1cccc2c1C(=O)c1c(O)c3c(c(O)c1C2=O)C[C@@](O)(C(=O)CO)CC3OC1CC(NCCOCC(OC(C)=O)OC(C)=O)C(O)C(C)O1 (stereo partly specified) | 0.00782 µM (active) | 0.00766 µM (active) | < 0.01 µM (active) | 0.00598 µM (active) | < 0.01 µM (active) | < 0.01 µM (active) | < 0.01 µM (active) | < 0.01 | < 0.01 µM (active) | 0.00973 µM (active) | < 0.01 µM (active) | < 0.01 µM (active) | < 0.01 µM (active) | < 0.01 µM (active) | < 0.01 µM (active) | 0.01 µM (active) | 
8 | CC(C)(C)OC(=O)C#CC[C@H]1CCCC1/C=C/C(O)=C1/C(=O)NC(CCCNC(=O)OC(C)(C)C)C1=O (stereo partly specified) | 30.6 µM (inactive) | 27.2 µM (inactive) | 32.6 µM (inactive) | 19.8 µM (inactive) | 21.3 µM (inactive) | 40.6 µM (inactive) | 33.7 µM (inactive) |  | 33.3 µM (inactive) | 41.4 µM (inactive) | 20.3 µM (inactive) | 33.2 µM (inactive) | 15.2 µM (inactive) | 31.9 µM (inactive) | 41.6 µM (inactive) | 38.8 µM (inactive) | 16.5 µM (inactive)
9 | O=C(NN1C(=O)C(Cl)C1c1c(O)ccc2ccccc12)c1ccccc1O (stereo unspecified) | > 100 µM (inactive) | > 100 µM (inactive) | > 100 µM (inactive) | > 100 µM (inactive) | > 100 µM (inactive) | > 100 µM (inactive) | > 100 µM (inactive) | > 100 | > 100 µM (inactive) | > 100 µM (inactive) | > 100 µM (inactive) |  | > 100 µM (inactive) | > 100 µM (inactive) | > 100 µM (inactive) |  | > 100 µM (inactive)
